Molecules are shown by their SMILES. Values joined by “and” are separate entries in the source; they are usually repeats but may differ in a detail not shown here. Identical values can stand only once.

Format in all cases: cell-based, human
Assay [1] deals with A-549 (epithelial cancer cell line). The experiment in a line: Antiproliferative assay. Conditions: Homo sapiens, A549; read-out: Antiproliferative Activity IC50 ± SEM, A-549. The method, then: (§1) 4.2.1.2. Assay for antiproliferative effect
(§2) To explore the antiproliferative potential of compounds MTT assay was performed according to previously reported procedure using different cell lines to explore the antiproliferative potential of compounds propidium iodide fluorescence assay was performed using different cell lines. To calculate the total nuclear DNA, a fluorescent dye (propidium iodide, PI) is used which can attach to the DNA, thus offering a quick and precise technique. PI cannot pass through the cell membrane and its signal intensity can be considered as directly proportional to quantity of cellular DNA. Cells whose cell membranes are damaged or have changed permeability are counted as dead ones. The assay was performed by seeding the cells of different cell lines at a density of 3000-7500 cells/well (in 200µl […]
(§3) atmospheric conditions. The medium was removed; the compounds were added to the plates at 10 µM concentrations (in 0.1% DMSO) in triplicates, followed by incubation for 48 h. DMSO (0.1%) was used as control. After incubation, medium was removed followed by the addition of PI (25 µl, 50µg/mL in water/medium) to each well of the plates. At -80 °C, the plates were allowed to freeze for 24 h, followed by thawing at 25 °C. A fluorometer (Polar-Star BMG Tech) was used to record the readings at excitation and emission wavelengths of 530 and 620 nm for each well. The percentage cytotoxicity of compounds was calculated using the following formula:
(§4) Where ATC= Absorbance of treated cells and AC= Absorbance of control. […]
(§5) positive control in the assay.

Assay [2] concerns HT-29 (colon cancer cell line). The assay is described as follows: Antiproliferative assay. The following applies: Homo sapiens, read-out: Antiproliferative Activity IC50 ± SEM, HT-29. As for the experimental part:
as §1, §2, §3, §4, §5

For assay [3], the system named is MCF-7 (breast cancer cell line). The experiment in a line: Antiproliferative assay. Conditions: Homo sapiens, MCF7; read-out: Antiproliferative Activity IC50 ± SEM, MCF-7. The method, then: as §1, §2, §3, §4, §5
Another assay deals with Bax. The assay is described as follows: Bax activation assay. The following applies: for Bax Conc: A-549; for Bax Fold Change: A-549, vs control untreated cells. As for the experimental part:
8, and lysed with Cell Extraction Buffer. This lysate was diluted in Standard Diluent Buffer over the range of the assay and measured for human active caspase-8 content. (cells are Plated in a density of 1.2 – 1.8 × 10,000 cells/well in a volume of 100µl complete growth medium + 100 ul of the tested compound per well in a 96-well plate for 24 hours before the enzyme assay for […].). […]
4.2.4. Bax activation assay
Bring all reagents, except the human Bax-α Standard, to room temperature for at least 30 minutes prior to opening. The human Bax-α Standard solution should not be left at room temperature for more than 10 minutes. All standards, controls and samples should be run in duplicate. Refer to the Assay Layout Sheet to determine the number of wells to be used and put any remaining wells with the desiccant back into the pouch and seal the ziploc. Store unused wells at 4 °C. Pipet 100 μL of Assay Buffer into the S0 (0 pg/mL standard) wells. Pipet 100 μL of Standards #1 through #6 into the appropriate wells. Pipet 100 μL of the Samples into the appropriate wells. Tap the plate gently to mix the contents. Seal the plate and incubate at room temperature on a plate shaker for 1 hour at ~500 rpm. Empty the contents of the wells and wash by adding 400 μL of wash solution to every well.
Repeat the wash 4 more times for a total of 5 washes. After the final wash, empty or aspirate the wells and firmly tap the plate on a lint free paper towel to remove any remaining wash buffer. Pipet 100 μL of yellow Antibody into each well, except the Blank. Seal the plate and incubate at room temperature on a plate shaker for 1 hour at ~500 […]
wells and firmly tap the plate on a lint free paper towel to remove any remaining wash buffer. Add […]
100 μL of blue Conjugate to each well, except the Blank. Seal the plate and incubate at room temperature on a plate shaker for 30 minutes at ~500 rpm. Empty the contents of the wells and wash by adding 400 μL of wash solution to every well. Repeat the wash 4 more times for a total of 5 washes. After the final wash, empty or aspirate the wells and firmly tap the plate on a lint free paper towel to remove any remaining wash buffer. Pipet 100 μL of Substrate Solution into each well.
Incubate for 30 minutes at room temperature on a plate shaker at ~500 rpm. Pipet 100 μL Stop Solution to each well. Blank the plate reader against the Blank wells, read the optical density at 450 nm. Calculate the average net Optical Density (OD) bound for each standard and sample by subtracting the average Blank OD from the average OD for each standard and sample. Using linear graph paper, plot the Average Net OD for each standard versus Bax concentration in each standard.
Approximate a straight line through the points. The concentration of Bax in the unknowns can be determined by interpolation. […]

A word on the IC50: it is the concentration needed to halve the response being measured. `O=c1cc(-n2cc(COc3cccc4cccc(OCc5cn(-c6cc(=O)[nH]c7ccccc67)nn5)c34)nn2)c2ccccc2[nH]1` [Compound 4a, 4,4′-(((naphthalene-1,8-diylbis(oxy))bis(methylene))bis(1H-1,2,3-triazole-4,1-diyl))-bis-(quinolin-2(1H)-one)]: the IC50 in assay [1] stood at 31 ± 3 nM; in assay [2], 36 ± 3 nM; in assay [3], 33 ± 3 nM. In the assay with Bax, the “Bax Conc” value is 298 pg/mL and 298.60 pg/mL. Further, the “Bax Fold Change” value with Bax is reported as 36.
With `Cc1ccc2[nH]c(=O)cc(-n3cc(COc4cccc5cccc(OCc6cn(-c7cc(=O)[nH]c8ccc(C)cc78)nn6)c45)nn3)c2c1` [Compound 4b, 4,4′-(((naphthalene-1,8-diylbis(oxy))bis(methylene))bis(1H-1,2,3-triazole-4,1-diyl))-bis(6-methylquinolin-2(1H)-one)], the IC50 was 41 ± 4 nM in assay [1], 48 ± 4 nM in assay [2] and 43 ± 4 nM in assay [3]. For the same molecule, the “Bax Conc” value in the assay with Bax was 284 pg/mL and 284.50 pg/mL. For the same molecule, the “Bax Fold Change” value in the assay on Bax is listed as 34.

Source of the values: PMC9788418, “Design, Synthesis and Biological Evaluation of Syn and Anti-like Double Warhead Quinolinones Bearing Dihydroxy Naphthalene Moiety as Epidermal Growth Factor Receptor Inhibitors with Potential Apoptotic Antiproliferative Action” (Molecules, 2022).
